Test results as given in ChEMBL document CHEMBL1201862, “PubChem BioAssay data set” (2004).
Several values for one entry are separate records, joined by “and”; a condition that tells them apart may be missing. Equal entries are not always repeated.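 1) Cells in 96-well plates. 2) Compound, 48 h, 5 concentrations. 3) Linear interpolation between surrounding doses. 4) Unreached endpoint = highest concentration. GI50 marks 50% less growth.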 Activity calls are given as the source filed them. No stated cut-off is given here; in the data, active = GI50 up to about 1.1 µM and inactive = higher.

Key:
Test in all cases: growth of human tumour cells (NCI), 48 h
UACC-62 = tested on: UACC-62
NCI/ADR-RES = tested on: NCI/ADR-RES
OVCAR-5 = tested on: OVCAR-5
HT-29 = tested on: HT-29
CCRF-CEM = tested on: CCRF-CEM
IGROV-1 = tested on: IGROV-1
HCT-15 = tested on: HCT-15
UO-31 = tested on: UO-31
SF-539 = tested on: SF-539
NCI-H522 = tested on: NCI-H522
SF-268 = tested on: SF-268
SF-295 = tested on: SF-295
RXF 393 = tested on: RXF 393
DU-145 = tested on: DU-145
786-0 = tested on: 786-0
UACC-257 = tested on: UACC-257
SK-MEL-2 = tested on: SK-MEL-2
M14 = tested on: M14
COLO 205 = tested on: COLO 205
SNB-75 = tested on: SNB-75
MDA-MB-231 = tested on: MDA-MB-231
MOLT-4 = tested on: MOLT-4
K562 = tested on: K562
NCI-H460 = tested on: NCI-H460
U-251 = tested on: U-251
Malme-3M = tested on: Malme-3M
OVCAR-8 = tested on: OVCAR-8
SK-OV-3 = tested on: SK-OV-3
HL-60 = tested on: HL-60
NCI-H226 = tested on: NCI-H226
MDA-N = tested on: MDA-N
MDA-MB-435 = tested on: MDA-MB-435
T47D = tested on: T47D
SNB-19 = tested on: SNB-19
SN12C = tested on: SN12C
ACHN = tested on: ACHN
HCC 2998 = tested on: HCC 2998
MCF7 = tested on: MCF7
SK-MEL-28 = tested on: SK-MEL-28
LOX IMVI = tested on: LOX IMVI
HOP-92 = tested on: HOP-92
PC-3 = tested on: PC-3
SR = tested on: SR
CAKI-1 = tested on: CAKI-1
HCT-116 = tested on: HCT-116
KM12 = tested on: KM12
SW-620 = tested on: SW-620
NCI-H23 = tested on: NCI-H23
OVCAR-4 = tested on: OVCAR-4
TK-10 = tested on: TK-10
A498 = tested on: A498
HOP-62 = tested on: HOP-62
OVCAR-3 = tested on: OVCAR-3
EKVX = tested on: EKVX
A549 = tested on: A549
BT-549 = tested on: BT-549
SK-MEL-5 = tested on: SK-MEL-5
RPMI-8226 = tested on: RPMI-8226

Measured: GI50

O=C1N/C(=N/N=C\C(O)C(O)C(O)C(O)CO)N/C1=C/c1ccccc1 (stereo not given)
inactive: UACC-62 > 100 µM | NCI/ADR-RES > 100 µM and 67 µM

[O-][S+](CCCl)c1c2ccccc2nc2ccccc12 (stereo not given)
> 100 µM: HCT-15
inactive: OVCAR-5 > 100 µM | HT-29 53.6 µM | CCRF-CEM 21.3 µM | IGROV-1 38.6 µM | UO-31 > 100 µM | SF-539 31.9 µM | NCI-H522 8.45 µM | SF-268 > 100 µM | SF-295 > 100 µM | RXF 393 > 100 µM | UACC-62 > 100 µM | DU-145 22.9 µM | 786-0 50.2 µM | UACC-257 > 100 µM | SK-MEL-2 > 100 µM | M14 75 µM | COLO 205 36.9 µM | SNB-75 > 100 µM | MDA-MB-231 70.6 µM | MOLT-4 37.2 µM | K562 > 100 µM | NCI-H460 > 100 µM | U-251 > 100 µM | Malme-3M > 100 µM | OVCAR-8 85.1 µM | SK-OV-3 > 100 µM | HL-60 29.4 µM | NCI-H226 > 100 µM | MDA-N 34.5 µM | MDA-MB-435 84.9 µM | T47D > 100 µM | SNB-19 > 100 µM | SN12C 23.3 µM | ACHN > 100 µM | HCC 2998 > 100 µM | MCF7 28.2 µM | SK-MEL-28 > 100 µM | LOX IMVI 79.4 µM | NCI/ADR-RES > 100 µM | HOP-92 > 100 µM | PC-3 > 100 µM | SR > 100 µM | CAKI-1 14.8 µM | HCT-116 42.1 µM | KM12 65.3 µM | SW-620 11.3 µM | NCI-H23 75 µM | OVCAR-4 > 100 µM | TK-10 > 100 µM | A498 > 100 µM | HOP-62 > 100 µM | OVCAR-3 > 100 µM | EKVX > 100 µM | A549 > 100 µM

C=C1c2nc3ccccc3n2C=C(c2ccc(OC)cc2)N1c1ccc(OC)cc1
25.5 µM: HCT-15
inactive: OVCAR-5 65.5 µM | CCRF-CEM > 100 µM | IGROV-1 10.6 µM | UO-31 12.5 µM | SF-539 7.16 µM | NCI-H522 10.7 µM | BT-549 22.1 µM | SF-295 11.7 µM | RXF 393 9.98 µM | UACC-62 16.1 µM | DU-145 26.9 µM | 786-0 5.4 µM | UACC-257 34 µM | SK-MEL-2 29.3 µM | M14 39.8 µM | COLO 205 83.4 µM | SNB-75 5.61 µM | MDA-MB-231 20 µM | MOLT-4 > 100 µM | K562 > 100 µM | NCI-H460 13.8 µM | U-251 9.71 µM | Malme-3M 11 µM | OVCAR-8 7.24 µM | SK-OV-3 16.1 µM | HL-60 > 100 µM | NCI-H226 18.7 µM | MDA-N 22.1 µM | MDA-MB-435 12.1 µM | SNB-19 4.25 µM | SN12C 17.8 µM | ACHN 7.16 µM | HCC 2998 20 µM | SK-MEL-5 7.45 µM | MCF7 22 µM | LOX IMVI 46.6 µM | NCI/ADR-RES 5.26 µM | HOP-92 15.6 µM | PC-3 19 µM | RPMI-8226 29.4 µM | SR 12.8 µM | CAKI-1 4.62 µM | HCT-116 17.4 µM | KM12 14.6 µM | SW-620 37.8 µM | NCI-H23 21.1 µM | OVCAR-4 7.78 µM | TK-10 10.8 µM | A498 17.9 µM | OVCAR-3 8.18 µM | EKVX 25.5 µM | A549 21.3 µM
